Measurements as given in ChEMBL document CHEMBL1201862, “PubChem BioAssay data set” (2004).
Activity calls are given as the source filed them.

Experiments:
[1] = target: Luciferin 4-monooxygenase (Photinus pyralis, UniProt P08659); experiment: inhibition of purified Photinus pyralis luciferase – biochemical, luminescence, dose response (AID 1891)
[2] = NIH3T3 cell viability loss – ATP luminescence, mouse fibroblasts, counter-screen, dose response (AID 2010); type: functional, cell-based;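 also: cells exposed to compound for about 90 hours before reading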
[3] = microbe, parasite or virus in culture; type: functional; details: Mycobacterium tuberculosis
[4] = Luminescence Cell-Based Dose Response HTS to Identify Inhibitors of 5'UTR Stem-Loop Driven Prion Protein mRNA Translation in H4 Neuroglioblastoma Cells. [Related pubchem assays: 1827 (Project Summary), 1813 (Primary HTS)]; type: functional
[5] = luciferase reporter signal suppression in cells – H4 neuroglioma cells, luminescence, dose response (AID 1990); type: functional, cell-based
[6] = HPDE-C7 pancreatic duct cell viability loss – fluorescence, HTS (AID 430); type: functional, cell-based; details: Homo sapiens
[7] = Luminescence Cell-Based Dose Confirmation HTS to Identify Inhibitors of Platelet Dense Granule Release. [Related pubchem assays: 1663 (Primary HTS), 1678 (Summary of Project)]; type: functional
[8] = Trypanosoma cruzi growth suppression in host cells – NIH3T3 host cells, beta-gal luminescence, confirmation (AID 2044); type: functional, cell-based;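 also: intracellular parasites grown in NIH/3T3 mouse fibroblasts as host cells; luminescent beta-galactosidase reporter signal from transgenic T. cruzi replicating inside host cells; inhibitors lower the luminescence signal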
[9] = Luminescence Cell-Based Dose Retest to Confirm Inhibitors of Cancer Stem Cells. [Related pubchem assays (depositor defined):AID2717, AID2721]; type: functional; details: Homo sapiens
[10] = viability loss of HPDE-C7K cells – cell-based, fluorescence, HTS, primary screen (AID 431); type: functional; details: Homo sapiens
[11] = alpha-synuclein stem-loop luciferase translation blockers – H4 neuroglioma cells, luminescence, confirmation (AID 1988); type: functional, cell-based
[12] = target: Epstein-Barr nuclear antigen 1 (Epstein-Barr virus (strain B95-8) (HHV-4) (Human herpesvirus 4), UniProt P03211); experiment: inhibition of EBV nuclear antigen 1 DNA binding – biochemical, fluorescence polarization, 1536-well, dose response (AID 2381); design: species or system human gammaherpesvirus 4;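 also: fluorescence polarization of a Cy5 DNA probe bound by EBNA-1 protein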
Chain of Epstein-Barr nuclear antigen 1 (P03211 whole entry): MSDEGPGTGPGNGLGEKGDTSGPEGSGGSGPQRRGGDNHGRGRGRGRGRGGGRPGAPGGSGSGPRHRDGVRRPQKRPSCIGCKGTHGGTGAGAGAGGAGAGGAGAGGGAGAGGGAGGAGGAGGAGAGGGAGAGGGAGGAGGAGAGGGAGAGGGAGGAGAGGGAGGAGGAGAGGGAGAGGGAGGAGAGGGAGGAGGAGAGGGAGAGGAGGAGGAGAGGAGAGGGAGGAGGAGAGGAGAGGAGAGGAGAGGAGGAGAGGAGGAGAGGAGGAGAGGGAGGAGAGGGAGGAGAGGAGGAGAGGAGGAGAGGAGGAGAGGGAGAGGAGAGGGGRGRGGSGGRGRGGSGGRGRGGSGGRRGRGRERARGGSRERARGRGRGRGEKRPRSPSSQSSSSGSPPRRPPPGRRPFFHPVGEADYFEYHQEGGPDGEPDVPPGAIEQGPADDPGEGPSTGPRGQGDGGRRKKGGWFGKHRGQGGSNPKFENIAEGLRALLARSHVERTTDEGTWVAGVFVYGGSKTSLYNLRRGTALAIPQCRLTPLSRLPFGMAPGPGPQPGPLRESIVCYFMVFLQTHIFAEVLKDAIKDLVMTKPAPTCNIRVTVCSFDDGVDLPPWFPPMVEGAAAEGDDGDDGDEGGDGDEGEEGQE

[13] = target: Lytic switch protein BZLF1 (Epstein-Barr virus (strain B95-8) (HHV-4) (Human herpesvirus 4), UniProt P03206); experiment: inhibition of BZLF1 ZTA DNA binding – biochemical, fluorescence polarization, Epstein-Barr virus, 1536-well, counter-screen for EBNA-1 inhibitor project, dose response (AID 2377); design: species or system human gammaherpesvirus 4;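 also: fluorescence polarization of Cy5-labelled ZRE DNA probe bound by purified Zta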
Chain of Lytic switch protein BZLF1 (P03206 whole entry): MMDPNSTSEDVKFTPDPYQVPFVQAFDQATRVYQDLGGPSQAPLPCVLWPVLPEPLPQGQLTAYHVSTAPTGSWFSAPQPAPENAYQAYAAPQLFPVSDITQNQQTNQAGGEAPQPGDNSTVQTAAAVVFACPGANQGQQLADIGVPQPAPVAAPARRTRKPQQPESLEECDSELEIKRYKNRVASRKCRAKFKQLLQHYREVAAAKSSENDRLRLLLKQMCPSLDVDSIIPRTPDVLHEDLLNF

[14] = target: DNA repair and recombination protein RAD54-like (Homo sapiens, UniProt Q92698); experiment: RAD54 Holliday junction migration blockers – biochemical, fluorescence, cherry-picked samples, dose series, confirmation (AID 651657); type: functional
Chain of DNA repair and recombination protein RAD54-like (Q92698 whole entry): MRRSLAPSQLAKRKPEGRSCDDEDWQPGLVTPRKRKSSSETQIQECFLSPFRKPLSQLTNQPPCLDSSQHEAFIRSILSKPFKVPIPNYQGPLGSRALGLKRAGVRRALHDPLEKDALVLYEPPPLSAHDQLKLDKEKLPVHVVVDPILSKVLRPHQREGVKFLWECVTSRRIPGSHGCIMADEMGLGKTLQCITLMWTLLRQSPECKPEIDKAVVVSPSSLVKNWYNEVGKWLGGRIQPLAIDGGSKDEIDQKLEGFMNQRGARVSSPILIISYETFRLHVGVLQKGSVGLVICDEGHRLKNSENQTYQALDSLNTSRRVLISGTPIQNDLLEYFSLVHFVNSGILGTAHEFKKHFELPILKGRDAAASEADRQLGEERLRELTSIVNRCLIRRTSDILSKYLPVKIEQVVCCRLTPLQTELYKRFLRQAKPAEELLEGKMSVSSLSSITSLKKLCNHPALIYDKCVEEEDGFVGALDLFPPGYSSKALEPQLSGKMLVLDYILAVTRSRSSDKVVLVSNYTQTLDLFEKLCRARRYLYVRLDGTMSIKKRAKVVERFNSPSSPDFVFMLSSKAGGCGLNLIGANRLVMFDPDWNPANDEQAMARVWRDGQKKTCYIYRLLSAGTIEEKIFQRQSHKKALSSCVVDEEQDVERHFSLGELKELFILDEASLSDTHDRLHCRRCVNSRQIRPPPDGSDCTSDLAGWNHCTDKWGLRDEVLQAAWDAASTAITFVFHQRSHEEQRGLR

[15] = target: Induced myeloid leukemia cell differentiation protein Mcl-1 (Homo sapiens, UniProt Q07820); experiment: blockers of MCL1 binding to BIM peptide – biochemical, fluorescence polarization, BIM-BH3 peptide, 1536-well, dose response (AID 2217)
Chain of Induced myeloid leukemia cell differentiation protein Mcl-1 (Q07820 whole entry): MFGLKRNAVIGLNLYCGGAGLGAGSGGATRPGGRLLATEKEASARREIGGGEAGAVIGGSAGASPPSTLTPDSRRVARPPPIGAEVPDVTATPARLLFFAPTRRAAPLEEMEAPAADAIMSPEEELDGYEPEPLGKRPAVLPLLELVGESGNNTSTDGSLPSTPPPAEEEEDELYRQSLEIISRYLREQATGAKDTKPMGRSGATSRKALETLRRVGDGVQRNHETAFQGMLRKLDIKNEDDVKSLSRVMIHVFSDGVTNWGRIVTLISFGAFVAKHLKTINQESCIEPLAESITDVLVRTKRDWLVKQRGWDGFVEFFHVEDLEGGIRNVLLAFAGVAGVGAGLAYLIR

Bcl-2-like protein 1 = Bcl-2-like protein 1 (Homo sapiens, UniProt Q07817); experiment: blockers of BCLXL peptide binding – biochemical, fluorescence polarization, 1536-well, selectivity assay for MCL1 inhibitor project, dose response (AID 2218)
Chain of Bcl-2-like protein 1 (Q07817 whole entry): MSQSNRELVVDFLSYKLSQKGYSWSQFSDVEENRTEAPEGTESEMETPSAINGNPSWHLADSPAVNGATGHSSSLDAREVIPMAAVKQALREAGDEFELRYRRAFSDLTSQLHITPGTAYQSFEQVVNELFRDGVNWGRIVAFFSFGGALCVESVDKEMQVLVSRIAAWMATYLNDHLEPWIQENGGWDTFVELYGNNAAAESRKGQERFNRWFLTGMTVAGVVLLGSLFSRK

[16] = target: DNA dC->dU-editing enzyme APOBEC-3G (Homo sapiens, UniProt Q9HC16); experiment: Dose Response confirmation of small molecule APOBEC3G DNA Deaminase Inhibitors via a fluorescence-based single-stranded DNA deaminase assay. [Related pubchem assays (depositor defined):AID493012, AID493028]; type: functional
Chain of DNA dC->dU-editing enzyme APOBEC-3G (Q9HC16 whole entry): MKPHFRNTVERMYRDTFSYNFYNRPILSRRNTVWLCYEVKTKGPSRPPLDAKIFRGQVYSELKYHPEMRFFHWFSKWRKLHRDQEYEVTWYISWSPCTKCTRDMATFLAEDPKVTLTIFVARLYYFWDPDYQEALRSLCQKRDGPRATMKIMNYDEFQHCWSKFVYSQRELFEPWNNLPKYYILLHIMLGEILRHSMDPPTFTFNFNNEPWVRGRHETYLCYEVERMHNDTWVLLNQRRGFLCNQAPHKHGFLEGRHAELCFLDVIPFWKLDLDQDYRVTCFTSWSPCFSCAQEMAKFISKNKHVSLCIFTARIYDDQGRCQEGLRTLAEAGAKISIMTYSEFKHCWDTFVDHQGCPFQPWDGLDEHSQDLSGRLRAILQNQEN

[17] = target: DNA dC->dU-editing enzyme APOBEC-3A (Homo sapiens, UniProt P31941); experiment: A3A deaminase inhibition for selectivity – biochemical, dose response (AID 504722); type: functional
Chain of DNA dC->dU-editing enzyme APOBEC-3A (P31941 whole entry): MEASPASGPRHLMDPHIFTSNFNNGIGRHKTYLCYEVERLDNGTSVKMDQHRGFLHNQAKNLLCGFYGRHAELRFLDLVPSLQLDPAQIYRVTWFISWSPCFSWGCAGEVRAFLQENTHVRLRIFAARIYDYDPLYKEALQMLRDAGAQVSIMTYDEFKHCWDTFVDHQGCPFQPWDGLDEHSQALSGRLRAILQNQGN

Large T antigen = Large T antigen (Simian virus 40, UniProt P03070); type: functional, Betapolyomavirus macacae;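 also: Confirmatory-stage PubChem screen for compounds that inhibit SV40 T antigen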
Chain of Large T antigen (P03070 whole entry, the tested form may be a part): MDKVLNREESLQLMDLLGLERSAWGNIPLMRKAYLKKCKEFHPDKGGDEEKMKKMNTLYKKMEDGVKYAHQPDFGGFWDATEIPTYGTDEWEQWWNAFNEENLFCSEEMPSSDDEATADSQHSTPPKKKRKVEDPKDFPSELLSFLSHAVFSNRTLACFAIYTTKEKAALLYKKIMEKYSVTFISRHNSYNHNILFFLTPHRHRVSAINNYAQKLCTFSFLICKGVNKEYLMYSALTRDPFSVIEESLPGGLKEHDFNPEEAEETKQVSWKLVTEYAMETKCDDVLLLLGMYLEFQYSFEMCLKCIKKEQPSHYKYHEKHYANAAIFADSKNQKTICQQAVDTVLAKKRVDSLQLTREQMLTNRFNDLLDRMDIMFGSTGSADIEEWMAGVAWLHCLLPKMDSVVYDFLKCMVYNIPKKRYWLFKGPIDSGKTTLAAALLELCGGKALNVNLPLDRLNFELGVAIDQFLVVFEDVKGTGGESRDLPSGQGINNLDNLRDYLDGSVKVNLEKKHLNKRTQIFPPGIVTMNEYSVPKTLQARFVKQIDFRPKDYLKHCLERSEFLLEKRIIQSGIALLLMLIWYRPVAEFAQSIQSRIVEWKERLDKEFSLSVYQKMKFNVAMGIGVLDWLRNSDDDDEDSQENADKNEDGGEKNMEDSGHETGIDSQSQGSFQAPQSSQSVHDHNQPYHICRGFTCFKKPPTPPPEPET

[18] = target: T1, RNA-binding protein pos-1 (Caenorhabditis elegans, UniProt G5EF15); experiment: disruptors of C. elegans POS-1 RNA interaction – biochemical, fluorescence polarization, dose response (AID 1964);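 also: purified POS-1 fused to maltose binding protein made in E. coli; potency of compounds blocking POS-1 binding to fluorescent RNA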
T1 sequence (G5EF15 whole entry): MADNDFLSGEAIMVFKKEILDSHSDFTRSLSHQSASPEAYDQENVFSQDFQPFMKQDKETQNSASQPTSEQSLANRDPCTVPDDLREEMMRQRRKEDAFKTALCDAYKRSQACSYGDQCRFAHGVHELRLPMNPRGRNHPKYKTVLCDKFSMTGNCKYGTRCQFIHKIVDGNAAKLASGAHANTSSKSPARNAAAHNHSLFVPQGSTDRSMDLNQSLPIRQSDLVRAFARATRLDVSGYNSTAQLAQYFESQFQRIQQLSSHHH

[19] = target: T2, Mannose-6-phosphate isomerase (Homo sapiens, UniProt P34949); experiment: MPI enzyme activity inhibition – biochemical, fluorescence intensity, coupled assay, primary screen (AID 1209)
T2 sequence (P34949 whole entry): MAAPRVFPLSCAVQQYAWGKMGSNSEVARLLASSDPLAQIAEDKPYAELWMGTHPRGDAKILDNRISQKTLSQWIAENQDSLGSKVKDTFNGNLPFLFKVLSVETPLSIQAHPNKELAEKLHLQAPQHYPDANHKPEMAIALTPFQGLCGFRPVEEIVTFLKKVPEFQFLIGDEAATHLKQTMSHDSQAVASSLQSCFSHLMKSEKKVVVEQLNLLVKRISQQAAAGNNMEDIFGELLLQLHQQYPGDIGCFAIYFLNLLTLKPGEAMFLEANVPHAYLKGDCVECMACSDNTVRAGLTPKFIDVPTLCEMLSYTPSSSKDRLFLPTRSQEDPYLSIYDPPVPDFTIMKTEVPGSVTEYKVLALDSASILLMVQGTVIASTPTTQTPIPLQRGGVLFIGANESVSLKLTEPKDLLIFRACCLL

[20] = target: T3, Replicative DNA helicase DnaB (Mycobacterium tuberculosis, UniProt P9WMR3); experiment: DnaB intein splicing inhibitors, dose response, biochemical, cell-free fluorescence (AID 449749); type: functional
T3 sequence (P9WMR3 whole entry): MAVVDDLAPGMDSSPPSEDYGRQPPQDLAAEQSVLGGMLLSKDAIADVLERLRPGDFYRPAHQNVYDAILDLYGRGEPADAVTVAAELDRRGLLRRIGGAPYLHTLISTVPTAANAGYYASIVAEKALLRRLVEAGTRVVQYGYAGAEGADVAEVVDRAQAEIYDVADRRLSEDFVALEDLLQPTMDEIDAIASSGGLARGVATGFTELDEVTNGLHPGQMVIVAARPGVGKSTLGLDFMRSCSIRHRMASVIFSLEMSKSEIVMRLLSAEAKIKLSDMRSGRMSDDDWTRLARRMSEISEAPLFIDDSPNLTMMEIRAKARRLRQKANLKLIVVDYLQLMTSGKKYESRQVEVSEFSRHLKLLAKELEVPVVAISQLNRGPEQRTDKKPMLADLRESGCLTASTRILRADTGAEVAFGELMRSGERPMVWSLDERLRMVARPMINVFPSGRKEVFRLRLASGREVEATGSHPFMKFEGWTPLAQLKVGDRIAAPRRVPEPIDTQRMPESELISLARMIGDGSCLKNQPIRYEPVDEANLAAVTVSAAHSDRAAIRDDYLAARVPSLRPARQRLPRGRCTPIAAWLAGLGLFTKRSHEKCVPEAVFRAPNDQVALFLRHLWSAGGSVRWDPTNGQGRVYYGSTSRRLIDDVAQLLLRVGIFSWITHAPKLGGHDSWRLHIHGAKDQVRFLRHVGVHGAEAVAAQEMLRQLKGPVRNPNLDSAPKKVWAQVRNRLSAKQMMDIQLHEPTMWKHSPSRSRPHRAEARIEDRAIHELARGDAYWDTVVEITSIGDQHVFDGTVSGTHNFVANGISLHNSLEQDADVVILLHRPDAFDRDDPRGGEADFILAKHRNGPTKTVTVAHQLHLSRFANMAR

Protein RecA = target: T4, Protein RecA (Mycobacterium tuberculosis, UniProt P9WHJ3); experiment: Fluorescence Cell-Free Homogeneous Dose Retest to Identify Inhibitors of RecA-Intein Splicing Activity. [Related pubchem assays (depositor defined):AID2097, AID2223, AID489010, AID492950]; type: functional
T4 sequence (P9WHJ3 whole entry): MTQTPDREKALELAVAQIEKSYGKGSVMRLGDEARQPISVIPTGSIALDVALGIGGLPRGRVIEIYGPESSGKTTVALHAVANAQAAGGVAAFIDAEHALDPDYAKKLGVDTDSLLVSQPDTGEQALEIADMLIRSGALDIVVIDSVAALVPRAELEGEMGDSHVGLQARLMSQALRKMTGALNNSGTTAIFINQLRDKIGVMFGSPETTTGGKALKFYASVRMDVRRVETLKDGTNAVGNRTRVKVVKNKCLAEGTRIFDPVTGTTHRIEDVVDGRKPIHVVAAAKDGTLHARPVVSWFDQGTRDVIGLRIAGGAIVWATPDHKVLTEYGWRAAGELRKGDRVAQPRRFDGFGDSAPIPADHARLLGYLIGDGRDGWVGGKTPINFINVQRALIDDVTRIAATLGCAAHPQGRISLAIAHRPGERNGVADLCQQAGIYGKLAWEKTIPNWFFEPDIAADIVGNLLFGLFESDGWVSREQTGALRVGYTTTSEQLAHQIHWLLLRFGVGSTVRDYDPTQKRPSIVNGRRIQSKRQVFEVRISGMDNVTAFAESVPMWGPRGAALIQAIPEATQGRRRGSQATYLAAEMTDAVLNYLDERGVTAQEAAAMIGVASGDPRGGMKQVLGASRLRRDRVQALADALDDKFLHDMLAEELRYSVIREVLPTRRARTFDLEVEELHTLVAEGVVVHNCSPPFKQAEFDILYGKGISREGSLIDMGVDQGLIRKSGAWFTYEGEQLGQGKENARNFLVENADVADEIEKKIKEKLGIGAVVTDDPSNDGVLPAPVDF

[21] = target: T2, Mannose-6-phosphate isomerase; experiment: MPI inhibition at elevated mannose 6-phosphate – biochemical, fluorescence intensity, high mannose 6-phosphate, primary screen (AID 1220)

Chain of Luciferin 4-monooxygenase (P08659 whole entry): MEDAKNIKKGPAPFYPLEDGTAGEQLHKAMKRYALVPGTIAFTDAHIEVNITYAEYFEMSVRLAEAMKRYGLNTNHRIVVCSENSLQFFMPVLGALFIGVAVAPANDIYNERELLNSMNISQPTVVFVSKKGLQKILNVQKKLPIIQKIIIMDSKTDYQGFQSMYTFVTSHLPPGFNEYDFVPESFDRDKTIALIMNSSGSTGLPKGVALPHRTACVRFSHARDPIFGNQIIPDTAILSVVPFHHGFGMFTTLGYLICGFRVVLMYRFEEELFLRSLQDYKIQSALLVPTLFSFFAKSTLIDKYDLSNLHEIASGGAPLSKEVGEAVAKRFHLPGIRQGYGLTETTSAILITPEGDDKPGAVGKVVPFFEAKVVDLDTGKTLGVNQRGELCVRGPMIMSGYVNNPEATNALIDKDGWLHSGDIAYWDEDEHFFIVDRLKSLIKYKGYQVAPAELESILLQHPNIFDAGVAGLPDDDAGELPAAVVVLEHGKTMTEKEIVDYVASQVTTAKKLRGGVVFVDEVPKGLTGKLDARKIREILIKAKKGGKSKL

CCCc1cc(-c2nc(N)ncc2-c2ccc3c(c2)OCCCO3)c(O)cc1OC
EC50 [1]: > 112 µM (not active)
EC50 [2]: 21 µM (active)
CC50 [3]: > 40 µM (active)
EC50 [4]: > 120 µM (not active)
EC50 [5]: 14.7 µM (active)
EC50 [6]: 6.37 µM (active)
EC50 [7]: > 112 µM (not active)
EC50 [8]: 0.884 µM (active)
AC50 [9]: 3.81 µM (active)
EC50 [10]: 5.93 µM (active)
EC50 [11]: > 120 µM (not active)

CC1CCCC(C)N1S(=O)(=O)c1ccc(NC(=O)CCn2cnc3ccccc3c2=O)cc1 (configuration not stated)
IC50 [12]: 16.4 µM (not active)
IC50 [13]: > 111 µM (not active)

c1ccc2c(c1)oc1c(Nc3ccc(CN4CCOCC4)cc3)ncnc12
AC50 [14]: 65.5 µM (active)
EC50 [6]: 12.8 µM (active)
EC50 [10]: 15.2 µM (active)

C=CCn1c(S)nnc1CSc1ccccc1[N+](=O)[O-]
IC50 [15]: 29.6 µM (not active)
IC50 (Bcl-2-like protein 1): > 109 µM (not active)
IC50 [16]: 2.24 µM (active)
IC50 [17]: 38.9 µM (active)

Cc1ncc(CO)c(/C=N/NC(=O)c2cc(O)c(O)c(O)c2)c1O
IC50 (Large T antigen): 3.72 µM (active)
EC50 [18]: 71.2 µM (active)
IC50 [19]: 4.5 µM (active)

O=[N+]([O-])c1cccc(/N=C/C2=C(O)c3ccccc3CC2)c1
AC50 [20]: > 380 µM (inactive)
EC50 (Protein RecA): 10.6 µM (active)
IC50 [19]: 10.3 µM (active)
IC50 [21]: > 50 µM (not active)
